Source: patent publication US8450308B2 (Vitae Pharmaceuticals, Inc., priority 2008, dated 2013)

biological target: T1, truncated human beta-secretase (residues 1-458, His6-tagged at the C-terminus) (Homo sapiens, UniProt P56817); assay: BACE fluorescence quench assay; assay type: biochemical; settings: not given
T1 construct: truncated human beta-secretase (residues 1-458, His6-tagged at the C-terminus); His6 (C); made in house; host or cells: insect cells D. melanogaster S2 (baculovirus expression system (so in the source))
Method: The assay was performed at room temperature in 96-well white opaque Optiplates aque Optiplates (PerkinElmer, Waltham, Mass.) in a total volume of 200 μl of the incubation mixture containing 50 mM sodium acetate buffer, pH 4.5, 0.4 μM FRET substrate, 2.4 nM enzyme, 5% DMSO, and 0.05% Brij-35. The tested compounds were serially diluted in DMSO and pre-incubated with the substrate. The reaction was started by addition of enzyme, and the progress of the reaction was followed by measuring fluorescence with an excitation wavelength of 480 nm and an emission wavelength of 520 nm. Ten measurements were taken every 5-10 min, and the intensity of fluorescence was regressed against time in order to derive velocities of reaction in all 96 wells. […] IC50 values were calculated by fitting percent inhibition vs. inhibitor concentration into a four-parametric logistic model using XLFit software (IDBS, Guildford, UK).

T1 sequence (P56817 22-458): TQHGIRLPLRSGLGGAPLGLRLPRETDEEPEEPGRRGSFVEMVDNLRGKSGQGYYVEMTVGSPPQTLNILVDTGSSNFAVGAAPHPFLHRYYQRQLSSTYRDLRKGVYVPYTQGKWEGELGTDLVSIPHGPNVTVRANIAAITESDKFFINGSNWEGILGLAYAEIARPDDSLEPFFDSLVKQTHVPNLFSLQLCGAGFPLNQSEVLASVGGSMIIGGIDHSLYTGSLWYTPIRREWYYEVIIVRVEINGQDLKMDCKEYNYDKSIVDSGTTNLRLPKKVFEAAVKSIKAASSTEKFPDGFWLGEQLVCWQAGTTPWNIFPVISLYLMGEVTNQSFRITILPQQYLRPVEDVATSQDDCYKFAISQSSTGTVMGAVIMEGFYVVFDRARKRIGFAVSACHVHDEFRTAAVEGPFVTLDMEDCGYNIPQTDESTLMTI

| Compound | IC50 |
| --- | --- |
| CN1C(=O)C2(CC(c3ccccc3)Oc3ccc(-c4cccc(C(=O)N5CCCC5)c4)cc32)N=C1N (stereo not shown) [Compound 61, 2′-amino-1′-methyl-2-phenyl-6-(3-(pyrrolidine-1-carbonyl)phenyl)spiro[chroman-4,4′-imidazol]-5′(1′H)-one] | 10000 to 50000 nM |
| CN1C(=O)C2(CC(c3ccccc3)Oc3ccc(-c4ccc(CNS(C)(=O)=O)cc4)cc32)N=C1N (stereo not shown) [Compound 62, N-(4-(2′-amino-1′-methyl-5′-oxo-2-phenyl-1′,5′-dihydrospiro[chroman-4,4′-imidazole]-6-yl)benzyl)methanesulfonamide] | 10000 to 50000 nM |
| CN1C(=O)C2(CC(c3ccccc3)Oc3ccc(-c4ccc(S(=O)(=O)N(C)C)cc4)cc32)N=C1N (stereo not shown) [Compound 65, 4-(2′-amino-1′-methyl-5′-oxo-2-phenyl-1′,5′-dihydrospiro[chroman-4,4′-imidazole]-6-yl)-N,N-dimethylbenzenesulfonamide] | 10000 to 50000 nM |
| CN(C)C(=O)c1ccccc1-c1ccc2c(c1)C1(CC(c3ccccc3)O2)N=C(N)N(C)C1=O (stereo not shown) [Compound 66, 2-(2′-amino-1′-methyl-5′-oxo-2-phenyl-1′,5′-dihydrospiro[chroman-4,4′-imidazole]-6-yl)-N,N-dimethylbenzamide] | 10000 to 50000 nM |
| CN(C)C(=O)c1ccc(-c2ccc3c(c2)C2(CC(c4ccccc4)O3)N=C(N)N(C)C2=O)cc1 (stereo not shown) [Compound 68, 4-(2′-amino-1′-methyl-5′-oxo-2-phenyl-1′,5′-dihydrospiro[chroman-4,4′-imidazole]-6-yl)-N,N-dimethylbenzamide] | 10000 to 50000 nM |
| CN1C(=O)C2(CC(c3ccccc3)Oc3ccc(-c4cccn4C(=O)OC(C)(C)C)cc32)N=C1N (stereo not shown) [Compound 70, tert-butyl 2-(2′-amino-1′-methyl-5′-oxo-2-phenyl-1′,5′-dihydrospiro[chroman-4,4′-imidazole]-6-yl)-1H-pyrrole-1-carboxylate] | 10000 to 50000 nM |
| CCN(CC)C(=O)c1ccc(-c2ccc3c(c2)C2(CC(c4ccccc4)O3)N=C(N)N(C)C2=O)cc1 (stereo not shown) [Compound 71, 4-(2′-amino-1′-methyl-5′-oxo-2-phenyl-1′,5′-dihydro-spiro[chroman-4,4′-imidazole]-6-yl)-N,N-diethylbenzamide] | 10000 to 50000 nM |

same assay, conditions: in vitro enzyme activity, BACE fluorescence assay, pH 4.5; read-out: IC50

| Compound | IC50 |
| --- | --- |
| NC1=NC2(CC(c3ccccc3)Oc3ccc(Br)cc32)C(=O)N1CCC1CC1 (stereo not shown) [Compound 59, 2′-amino-6-bromo-1′-(2-cyclopropylethyl)-2-phenylspiro[chroman-4,4′-imidazol]-5′(1′H)-one] | 10000 to 50000 nM |
| CN1C(=O)C2(CC(c3ccccc3F)Oc3ccc(Br)cc32)N=C1N (stereo not shown) [Compound 63, 2′-amino-6-bromo-2-(2-fluorophenyl)-1′-methylspiro-[chroman-4,4′-imidazol]-5′(1′H)-one] | 10000 to 50000 nM |
| Cc1ccc2c(c1)C1(CC(c3ccccc3)O2)N=C(N)N(C)C1=O (stereo not shown) [Compound 64, 2′-amino-1′,6-dimethyl-2-phenylspiro[chroman-4,4′-imidizol]-5′(1′H)-one] | 10000 to 50000 nM |
| CCN1C(=O)C2(CC(c3ccccc3)Oc3ccc(Br)cc32)N=C1N (stereo not shown) [Compound 69, 2′-amino-6-bromo-1′-ethyl-2-phenylspiro[chroman-4,4′-imidazol]-5′(1′H)-one] | 10000 to 50000 nM |
| CN1C(=O)C2(CC3(CCCOC3)Oc3ccc(-c4cccc(C#N)c4)cc32)N=C1N (stereo not shown) [Compound 72] | 1 to 100 nM |
| CN1C(=O)[C@@]2(C[C@]3(CCCOC3)Oc3ccc(-c4cccc(C#N)c4)cc32)N=C1N [Compound 72a] | 1 to 100 nM |
| CN1C(=O)[C@@]2(C[C@@]3(CCCOC3)Oc3ccc(-c4cccc(C#N)c4)cc32)N=C1N [Compound 72b] | 100 to 500 nM |
| CCC1CCC2(C1)CC1(N=C(N)N(C)C1=O)c1cc(-c3cccc(C#N)c3)ccc1O2 (stereo not shown) [Compound 73] | 100 to 500 nM |
| CC1CCC2(C1)CC1(N=C(N)N(C)C1=O)c1cc(-c3cccc(C#N)c3)ccc1O2 (stereo not shown) [Compound 74] | 100 to 500 nM |
| CC1CCC2(CC1)CC1(N=C(N)N(C)C1=O)c1cc(-c3cccc(C#N)c3)ccc1O2 (stereo not shown) [Compound 75] | 100 to 500 nM |
| CN1C(=O)C2(CC3(CCCCC3)Oc3ccc(-c4cccc(C#N)c4)cc32)N=C1N (stereo not shown) [Compound 76] | 100 to 500 nM |
| CN1C(=O)C2(CC3(CCOCC3)Oc3ccc(-c4cccc(C#N)c4)cc32)N=C1N (stereo not shown) [Compound 77] | 100 to 500 nM |
| CN1C(=O)C2(CC3(CCCCCC3)Oc3ccc(-c4cccc(C#N)c4)cc32)N=C1N (stereo not shown) [Compound 78] | 500 to 1000 nM |
| CN1C(=O)C2(CC3(CCCC3)Oc3ccc(-c4cccc(C#N)c4)cc32)N=C1N (stereo not shown) [Compound 79] | 500 to 1000 nM |
| CN1C(=O)C2(CC3(CCCCC3)Oc3ccc(-c4cccnc4)cc32)N=C1N (stereo not shown) [Compound 80] | 1000 to 5000 nM |
| CN1C(=O)C2(CC3(CCCC(C(F)(F)F)C3)Oc3ccc(-c4cccc(C#N)c4)cc32)N=C1N (stereo not shown) [Compound 81] | 1000 to 5000 nM |
| CC1CCCC2(C1)CC1(N=C(N)N(C)C1=O)c1cc(-c3cccc(C#N)c3)ccc1O2 (stereo not shown) [Compound 82] | 1000 to 5000 nM |
| CC1CC(C)CC2(C1)CC1(N=C(N)N(C)C1=O)c1cc(-c3cccc(C#N)c3)ccc1O2 (stereo not shown) [Compound 83] | 1000 to 5000 nM |

Other lines, results leading:

| IC50 | Compound |
| --- | --- |
| 10000 to 50000 nM | CN1C(=O)C2(CC3(CCCCC3)Oc3ccc(-c4ccncc4)cc32)N=C1N (stereo not shown) [Compound 84] |
| 1 to 100 nM | CN1OC2(CC(C3CCCOC3)Oc3ccc(-c4cccc(C#N)c4)cc32)N=C1N (stereo not shown) [Compound 85, 3-(3′-amino-2′-methyl-2-(tetrahydro-2H-pyran-3-yl)-2′H-spiro[chroman-4,5′-[1,2,4]oxadiazole]-6-yl)benzonitrile] |
| 1 to 100 nM | CN1OC2(CC(C3CCCOC3)Oc3ccc(-c4cc(F)cc(C#N)c4)cc32)N=C1N (stereo not shown) [Compound 86] |
| 100 to 500 nM | CN1OC2(CC(C3CCCOC3)Oc3ccc(-c4cccc(Cl)c4)cc32)N=C1N (stereo not shown) [Compound 87] |
| 100 to 500 nM | CN1OC2(CC(C3CCOCC3)Oc3ccc(-c4cccc(C#N)c4)cc32)N=C1N (stereo not shown) [Compound 88, 3-(3′-amino-2′-methyl-2-(tetrahydro-2H-pyran-4-yl)-2′H-spiro[chroman-4,5′-[1,2,4]-oxadiazole]-6-yl)benzonitrile] |
| 100 to 500 nM | CN1OC2(C[C@@H](C3CCCOC3)Oc3ccc(-c4cccnc4F)cc32)N=C1N (stereo partly shown) [Compound 89a] |
| 1000 to 5000 nM | CN1OC2(C[C@H](C3CCCOC3)Oc3ccc(-c4cccnc4F)cc32)N=C1N (stereo partly shown) [Compound 89b] |
| 100 to 500 nM | CN1OC2(CC(C3CCCOC3)Oc3ccc(-c4cc(F)cc(F)c4)cc32)N=C1N (stereo not shown) [Compound 90, 6-(3,5-difluorophenyl)-2′-methyl-2-(tetrahydro-2H-pyran-3-yl)-2′H-spiro[chroman-4,5′-[1,2,4]oxadiazol]-3′-amine] |
| 100 to 500 nM | COc1ccc(F)c(-c2ccc3c(c2)C2(CC(C4CCCOC4)O3)N=C(N)N(C)O2)c1 (stereo not shown) [Compound 91] |
| 100 to 500 nM | COc1cccc(-c2ccc3c(c2)C2(CC(C4CCCOC4)O3)N=C(N)N(C)O2)c1F (stereo not shown) [Compound 92] |
| 500 to 1000 nM | CN1OC2(CC(C3CCCOC3)Oc3ccc(-c4cccc(F)c4)cc32)N=C1N (stereo not shown) [Compound 93, 6-(3-fluorophenyl)-2′-methyl-2-(tetrahydro-2H-pyran-3-yl)-2′H-spiro[chroman-4,5′-[1,2,4]oxadiazol]-3′-amine] |
| 500 to 1000 nM | CN1OC2(CC(C3CCOC3)Oc3ccc(-c4cccc(C#N)c4)cc32)N=C1N (stereo not shown) [Compound 94] |
| 1000 to 5000 nM | CN1OC2(CC(c3cccnc3)Oc3ccc(-c4cccc(C#N)c4)cc32)N=C1N (stereo not shown) [Compound 95, 3-(3′-amino-2′-methyl-2-(pyridine-3-yl)-2′H-spiro[chroman-4,5′-[1,2,4]-oxadiazole]-6-yl)benzonitrile] |
| 1000 to 5000 nM | CN1OC2(CC(c3ccccc3)Oc3ccc(-c4cccc(C#N)c4)cc32)N=C1N (stereo not shown) [Compound 96, 3-(3′-amino-2′-methyl-2-phenyl-2′H-spiro[chroman-4,5′-[1,2,4]oxadiazole]-6-yl)benzonitrile] |
| 1000 to 5000 nM | CN1OC2(CCOc3ccc(-c4cccc(C#N)c4)cc32)N=C1N (stereo not shown) [Compound 97, 3-(3′-Amino-2′-methyl-2′H-spiro[chroman-4,5′-[1,2,4]oxadiazole]-6-yl)benzonitrile] |
| 1000 to 5000 nM | CN1OC2(CC(C3CCCOC3)Oc3ccc(-c4cncnc4)cc32)N=C1N (stereo not shown) [Compound 98] |
| 1000 to 5000 nM | CN1OC2(CC(C3CCCC3)Oc3ccc(-c4cccc(C#N)c4)cc32)N=C1N (stereo not shown) [Compound 99] |
| 1000 to 5000 nM | CN1OC2(CC(CO)(CO)Oc3ccc(-c4cccc(C#N)c4)cc32)N=C1N (stereo not shown) [Compound 100, 3-(2,2-bis(hydroxymethyl)-3′-imino-2′-methylspiro[chroman-4,5′-[1,2,4]oxadiazolidine]-6-yl)benzonitrile] |
| 1000 to 5000 nM | CC(C)c1cccc(-c2ccc3c(c2)C2(CC(C4CCCOC4)O3)N=C(N)N(C)O2)c1 (stereo not shown) [Compound 101, 6-(3-isopropylphenyl)-2′-methyl-2-(tetrahydro-2H-pyran-3-yl)-2′H-spiro[chroman-4,5′-[1,2,4]oxadiazol]-3′-amine] |
| 1000 to 5000 nM | CN1OC2(CC(c3ccccc3)Oc3ccc(-c4cccnc4)cc32)N=C1N (stereo not shown) [Compound 102, 2′-methyl-2-phenyl-6-(pyridin-3-yl)-2′H-spiro[chroman-4,5′-[1,2,4]oxadiazol]-3′-amine] |
| 5000 to 10000 nM | CN1OC2(CC(c3ccccc3)Oc3ccc(-c4ccc(F)c(C#N)c4)cc32)N=C1N (stereo not shown) [Compound 103, 5-(3′-amino-2′-methyl-2-phenyl-2′H-spiro(chroman-4,5′-(1,2,4)oxadiazole)-6-yl)-2-fluorobenzonitrile] |
